Source: patent US20190031667A1, “PESTICIDALLY ACTIVE HETEROCYCLIC DERIVATIVES WITH SULPHUR CONTAINING SUBSTITUENTS” (SYNGENTA PARTICIPATIONS AG, priority 2016, published 2019)

What was measured:
[1] = test system: Spodoptera littoralis (Egyptian cotton leaf worm); assay: Example B1: Activity against Spodoptera littoralis, sprayed cotton leaf discs; format: in vivo; conditions: foliar, 72 h, application rate 200 ppm, L1 larvae, 3 days after infestation
Description: Example B1: Activity against Spodoptera littoralis (Egyptian cotton leaf worm) Cotton leaf discs were placed onto agar in 24-well microtiter plates and sprayed with aqueous test solutions prepared from 10′000 ppm DMSO stock solutions. After drying the leaf discs were infested with five L1 larvae. The samples were assessed for mortality, anti-feeding effect, and growth inhibition in comparison to untreated samples 3 days after infestation. Control of Spodoptera littoralis by a test sample is given when at least one of the categories mortality, anti-feedant effect, and growth inhibition is higher than the untreated sample.

[2] = test system: Plutella xylostella (Diamond Back Moth); assay: Example B3: Activity against Plutella xylostella, artificial diet; format: in vivo; conditions: 120 h, application rate 200 ppm, L2 larvae, 5 days after infestation, read-out: effect in at least one of the two categories (mortality or growth inhibition)
Description: Example B3: Activity Against Plutella xylostella (Diamond Back Moth)
(§1) 24-well microtiter plates with artificial diet were treated with aqueous test solutions prepared from 10′000 ppm DMSO stock solutions by pipetting. After drying, the plates were infested with L2 larvae (10 to 15 per well). The samples were assessed for mortality and growth inhibition in comparison to untreated samples 5 days after infestation.

[3] = test system: Diabrotica Balteata (Corn Root Worm); assay: Example B4: Activity against Diabrotica balteata, sprayed maize sprouts; format: in vivo; conditions: 96 h, application rate 200 ppm, L2 larvae, 4 days after infestation, read-out: effect in at least one of the two categories (mortality or growth inhibition)
Description: Example B4: Activity Against Diabrotica Balteata (Corn Root Worm)
as §1, with “Maize sprouts, placed onto an agar layer in 24-well” for “24-well”, “plates” for “plates with artificial diet”, “spraying.” for “pipetting.”, “(6” for “(10”, “10” for “15”, “4” for “5”

[4] = test system: Euschistus heros (Neotropical Brown Stink Bug); assay: Example B8: Activity against Euschistus heros, sprayed soybean leaves; format: in vivo; conditions: 120 h, application rate 200 ppm, N2 nymphs, 5 days after infestation, read-out: effect in at least one of the two categories (mortality or growth inhibition)
Description: Example B8: Activity Against Euschistus heros (Neotropical Brown Stink Bug)
Soybean leaves on agar in 24-well microtiter plates were sprayed with aqueous test solutions prepared from 10′000 ppm DMSO stock solutions. After drying the leaves were infested with N2 nymphs. The samples were assessed for mortality and growth inhibition in comparison to untreated samples 5 days after infestation.

[5] = test system: Spodoptera littoralis (Egyptian cotton leaf worm); assay: Example B2: Activity against Spodoptera littoralis, systemic via lettuce roots in agar; format: in vivo; conditions: 144 h, test rate 12.5 ppm, uptake by lettuce roots from agar, 6 days after infestation, read-out: effect in at least one of the three categories (mortality, anti-feeding, or growth inhibition)
Description: Example B2: Activity against Spodoptera littoralis (Egyptian cotton leaf worm) Test compounds were applied by pipette from 10′000 ppm DMSO stock solutions into 24-well plates and mixed with agar. Lettuce seeds were placed onto the agar and the multi well plate was closed by another plate which contained also agar. After 7 days the compound was absorbed by the roots and the lettuce grew into the lid plate. The lettuce leaves were then cut off into the lid plate. Spodoptera eggs were pipetted through a plastic stencil onto a humid gel blotting paper and the lid plate was closed with it. The samples were assessed for mortality, anti-feedant effect and growth inhibition in comparison to untreated samples 6 days after infestation.

[6] = test system: Myzus persicae (Green Peach Aphid); assay: Example B5: Activity against Myzus persicae, sprayed sunflower leaf discs; format: in vivo; conditions: foliar, 144 h, application rate 200 ppm, mixed-age aphids, 6 days after infestation
Description: Example B5: Activity Against Myzus persicae (Green Peach Aphid)
Sunflower leaf discs were placed onto agar in a 24-well microtiter plate and sprayed with aqueous test solutions prepared from 10′000 ppm DMSO stock solutions. After drying, the leaf discs were infested with an aphid population of mixed ages. The samples were assessed for mortality 6 days after infestation.

SMILES | percent control (mortality, anti-feedant effect or growth inhibition) at 200 ppm [1] | percent effect (mortality or growth inhibition) at 200 ppm [2] | percent effect (mortality or growth inhibition) at 200 ppm [3] | percent effect (mortality or growth inhibition) at 200 ppm [4] | melting point | percent effect (mortality, anti-feeding or growth inhibition) at 12.5 ppm [5] | mortality at 200 ppm [6]
CCS(=O)(=O)c1ccc(-n2cc(C#N)cn2)nc1-n1cc2cnc(C(F)(F)F)cc2n1 [Compound P5] | ≥ 80% | ≥ 80% | ≥ 80% | ≥ 80% |  |  | 
CCS(=O)(=O)c1ccc(-n2cnc(SC)n2)nc1-n1nc2cc(C(F)(F)F)ncc2c1Cl [Compound P26] |  |  |  |  | 118 to 120 °C |  | 
CCS(=O)(=O)c1ccc(-n2cncn2)nc1-n1cc2cnc(C(F)(F)F)cc2n1 [Compound P3, 2-[3-ethylsulfonyl-6-(1,2,4-triazol-1-yl)-2-pyridyl]-6-(trifluoromethyl)pyrazolo[4,3-c]pyridine] | ≥ 80% | ≥ 80% | ≥ 80% | ≥ 80% |  | ≥ 80% | ≥ 80%
CCS(=O)(=O)c1cc(Cl)c(OC)nc1-n1cc2cnc(C(F)(F)F)cc2n1 [Compound P24, 2-(5-chloro-3-ethylsulfonyl-6-methoxy-2-pyridyl)-6-(trifluoromethyl)pyrazolo[4,3-c]pyridine] | ≥ 80% | ≥ 80% | ≥ 80% | ≥ 80% |  |  | ≥ 80%
CCS(=O)(=O)c1ccc(-c2cccnc2)nc1-n1nc2cc(C(F)(F)F)ncc2c1Cl [Compound P17, 3-chloro-2-[3-ethylsulfonyl-6-(3-pyridyl)-2-pyridyl]-6-(trifluoromethyl)pyrazolo[4,3-c]pyridine] |  |  |  |  | 194 to 196 °C |  | 
CCS(=O)(=O)c1ccc(N(C)C)nc1-n1cc2cnc(C(F)(F)F)cc2n1 [Compound P30] |  |  |  |  | 256 to 258 °C |  | 
CCS(=O)(=O)c1ccc(-c2cccc(F)c2)nc1-n1cc2cnc(C(F)(F)F)cc2n1 [Compound P7] | ≥ 80% |  |  |  |  |  | 
CCS(=O)(=O)c1ccc(NC)nc1-n1cc2cnc(C(F)(F)F)cc2n1 [Compound P15] | ≥ 80% | ≥ 80% | ≥ 80% | ≥ 80% |  | ≥ 80% | ≥ 80%
CCS(=O)(=O)c1ccc(-c2cccnc2)nc1-n1cc2cnc(C(F)(F)F)cc2n1 [Compound P12, 2-[3-ethylsulfonyl-6-(3-pyridyl)-2-pyridyl]-6-(trifluoromethyl)pyrazolo[4,3-c]pyridine] | ≥ 80% | ≥ 80% | ≥ 80% |  |  |  | 
CCS(=O)(=O)c1ccc(NO)nc1-n1nc2cc(C(F)(F)F)ncc2c1Cl [Compound P32] |  |  |  |  | 246 to 248 °C |  | 
CCS(=O)(=O)c1ccc(-n2cnc(SC)n2)nc1-n1cc2cnc(C(F)(F)F)cc2n1 [Compound P27] |  |  |  |  | 172 to 174 °C |  | 
CCS(=O)(=O)c1ccc(-n2ccc(C#N)n2)nc1-n1cc2cnc(C(F)(F)F)cc2n1 [Compound P20] | ≥ 80% | ≥ 80% | ≥ 80% | ≥ 80% |  |  | 
CCS(=O)(=O)c1ccc(-n2cncn2)nc1-n1nc2cc(C(F)(F)F)ncc2c1Cl [Compound P2, 3-chloro-2-[3-ethylsulfonyl-6-(1,2,4-triazol-1-yl)-2-pyridyl]-6-(trifluoromethyl)pyrazolo[4,3-c]pyridine] | ≥ 80% |  | ≥ 80% | ≥ 80% |  |  | 
CCS(=O)(=O)c1ccc(-c2cccc(F)c2)nc1-n1nc2cc(C(F)(F)F)ncc2c1Cl [Compound P6] | ≥ 80% | ≥ 80% |  |  |  |  | 
CCS(=O)(=O)c1cc(Cl)c(NC)nc1-n1cc2cnc(C(F)(F)F)cc2n1 [Compound P18] | ≥ 80% | ≥ 80% | ≥ 80% | ≥ 80% |  |  | ≥ 80%
CCS(=O)(=O)c1ccc(-n2cnc(Cl)n2)nc1-n1nc2cc(C(F)(F)F)ncc2c1Cl [Compound P4] | ≥ 80% |  |  |  |  |  | 
CCS(=O)(=O)c1ccc(N)nc1-n1nc2cc(C(F)(F)F)ncc2c1Cl [Compound P14, 6-[3-chloro-6-(trifluoromethyl)pyrazolo[4,3-c]pyridin-2-yl]-5-ethylsulfonyl-pyridin-2-amine] |  |  |  |  |  |  | ≥ 80%
CCS(=O)(=O)c1ccc(-n2ccc(C#N)n2)nc1-n1nc2cc(C(F)(F)F)ncc2c1Cl [Compound P21] |  |  |  |  | 264 to 266 °C |  | 
CCS(=O)(=O)c1ccc(-c2cncnc2)nc1-n1cc2cnc(C(F)(F)F)cc2n1 [Compound P9] | ≥ 80% | ≥ 80% | ≥ 80% | ≥ 80% |  |  | ≥ 80%
CCS(=O)(=O)c1ccc(NC)nc1-n1nc2cc(C(F)(F)F)ncc2c1Cl [Compound P13] |  |  |  |  | 257 to 259 °C |  | 
CCS(=O)(=O)c1ccc(N(C)C)nc1-n1nc2cc(C(F)(F)F)ncc2c1Cl [Compound P29] |  |  |  |  | 166 to 168 °C |  | 
CCS(=O)(=O)c1ccc(-n2cncn2)nc1-n1nc2cc(C(F)(F)F)ncc2c1C [Compound P22, 2-[3-ethylsulfonyl-6-(1,2,4-triazol-1-yl)-2-pyridyl]-3-methyl-6-(trifluoromethyl)pyrazolo[4,3-c]pyridine] | ≥ 80% | ≥ 80% | ≥ 80% |  |  | ≥ 80% | ≥ 80%
CCOc1nc(-n2cc3cnc(C(F)(F)F)cc3n2)c(S(=O)(=O)CC)cc1Cl [Compound P23] | ≥ 80% | ≥ 80% | ≥ 80% | ≥ 80% |  |  | ≥ 80%
CCS(=O)(=O)c1ccc(-n2cccn2)nc1-n1cc2cnc(C(F)(F)F)cc2n1 [Compound P8] | ≥ 80% | ≥ 80% | ≥ 80% |  |  |  | ≥ 80%
CCS(=O)(=O)c1ccc(-n2cnc(S(C)(=O)=O)n2)nc1-n1cc2cnc(C(F)(F)F)cc2n1 [Compound P28] |  |  |  |  | 247 to 249 °C |  | 
CCS(=O)(=O)c1ccc(-n2cc(C#N)cn2)nc1-n1nc2cc(C(F)(F)F)ncc2c1Cl [Compound P10, 1-[6-[3-chloro-6-(trifluoromethyl)pyrazolo[4,3-c]pyridin-2-yl]-5-ethylsulfonyl-2-pyridyl]pyrazole-4-carbonitrile] | ≥ 80% | ≥ 80% |  |  |  |  | 
CCS(=O)(=O)c1ccc(-c2cc(F)cc(F)c2)nc1-n1cc2cnc(C(F)(F)F)cc2n1 [Compound P1, 2-[6-(3,5-difluorophenyl)-3-ethylsulfonyl-2-pyridyl]-6-(trifluoromethyl)pyrazolo[4,3-c]pyridine] |  |  |  |  | 207 to 209 °C |  | 
